Source: publication PMC2193921 (The Journal of Experimental Medicine, 2002)

System: highly tumor reactive A2/Melan-A multimer+ CD8+ T cell clones
Details: 4 h

IC50: ~1 nM
SMILES: CC[C@H](C)[C@H](NC(=O)CNC(=O)[C@H](C)NC(=O)[C@H](C)N)C(=O)NCC(=O)N[C@H](C(=O)N[C@@H](CC(C)C)C(=O)N[C@H](C(=O)N[C@H](C(=O)O)C(C)C)[C@@H](C)O)[C@@H](C)CC [Melan-A 27–35]
